# Results reported in patent EP0521799A1, “Ophthalmic compositions” (YISSUM RESEARCH DEVELOPMENT COMPANY OF THE HEBREW …, priority 1991, dated 1993).
# How the values were obtained:
# S.aureus = test: Preservative efficacy in emulsion (Table 2); type: cell-based; settings: for Number of Organisms in 1ml Emulsion: S.aureus
# Protocol: (§1) To each 20ml of emulsion, an inoculum of a microorganismal suspension (at an initial concentration of about 1-3 x 10⁸ cells per ml) was added under sterile conditions to a final concentration of about 1-3 x 10⁶ cells per ml of emulsion. Immediately upon inoculation and at 24, 48 hours, 7, 14 and 28 days thereafter, samples of 1 ml were withdrawn and eluted in a pH 7.0 sodium chloride buffer (B.P. 88 neutralizing buffer, DIFCO Laboratories, Detroit, MI, USA) to neutralize the preservatives. After about 20-30 minutes of exposure of sample to the neutralizing buffer, samples were filtered through a 0.45µm cellulose acetate filter (TE, Schueller & Schleicher). The filter and the holder were washed with 3 portions of 100 ml of sodium chloride peptone solution and then the filter was transferred to a petri dish with PCPL media which consisted of the following ingredients (per 400 ml): 20g tryptone, 1.0g yeast extract, 0.4g. dextrose, 6.0 bactoagar, 0.4g lethicin and 8.0ml Tween 80.
# (§2) At 24 hours or at 2 to 5 days after the withdrawal of the sample, the number of the microorganism was counted on the petri dishes. (In order to achieve a proper count of the microorganism dilutions of the initially withdrawn sample to obtain a dilution factor of 1:10-1:50,000, were made).
# (§3) Two blank emulsions without a preservative served as control for the two different neutralizing buffers.
# A. niger = test: Preservative efficacy in emulsion (Table 2); type: cell-based
# Protocol: as §1, §2, §3
# P. aeruginosa = test: Preservative efficacy in emulsion (Table 2); type: cell-based
# Protocol: as §1, §2, §3
# E. coli = test: Preservative efficacy in emulsion (Table 2); type: cell-based
# Protocol: as §1, §2, §3
# C. albicans = test: Preservative efficacy in emulsion (Table 2); type: cell-based
# Protocol: as §1, §2, §3
# microorganisms = test: Preservative efficacy of single preservatives, overall judgement; type: cell-based
# Protocol: as §1, §2, §3
# The same experiment was also carried out with Chlorbutol alone instead of Thimerosal.
# [1] = test system: ocularly normo-tensive rabbits; test: IOP after topical Δ⁸-THC composition, normo-tensive rabbits; type: in vivo, albino rabbits; settings: composition of the invention comprising 0.4% Δ⁸-THC
# Protocol: (§4) The intraocular pressure (IOP) was measured by a Digilab pneumotonometer model 30R. For IOP measurement, one drop of the local anaesthetic benoxinate HCl (Fischer Pharmaceuticals, Israel) diluted 1:3 in sterile solution was instilled into each eye. In order to ensure reproducibility of IOP readings, the animals were accustomed to the experimental procedure by repeated handling.
# (§5) A composition in accordance with the invention comprising 0.4% Δ⁸-THC was administered to the right eyes of albino rabbits. The administration of the composition and IOP measurements were performed as described above under (A).
# (§6) Both ocularly hypertensive and normo-tensive albino rabbits were used in the study.
# [2] = test system: ocularly hypertensive rabbits; test: IOP after topical Δ⁸-THC composition, hypertensive rabbits; type: in vivo, albino rabbits; settings: composition of the invention comprising 0.4% Δ⁸-THC
# Protocol: as §4, §5, §6
# [3] = HU-211 concentration in emulsions on storage; type: physicochemical; settings: in emulsion
# Protocol: The HU-211 concentration was measured at different temperatures after various storage times and the results are shown in Fig. 11.
# Albino rabbits = test: Intraocular pressure (IOP) after a single topical dose of HU-211 emulsion; type: in vivo; settings: for decrease of IOP in the contralateral eye: untreated left eye, about 4 hours after administration
# Protocol: Albino rabbits of both sexes weighing 2.25 kg were used. All rabbits chosen had no signs of ocular pathology.
# as §4
# Basal IOP was measured for 2 days prior to drug application by measuring the IOP 5 times over an 11 hrs. period (starting at 8am and ending at 7pm). Each time IOP was measured twice and an average of two readings was obtained.
# IOP was measured at the time of drug application and at 1.5, 4, 6 and 11 hrs. thereafter.
# Two groups of animals were tested, each by a different experimenter. The first group which consisted of 20 rabbits is referred to herein as " Group I" and the second group which consisted of 10 rabbits is referred to herein as "Group II". The two groups received, however, exactly the same treatment.
# The treatment consisted of the application of a single dose of 50µl of a 0.1% (w/v) of HU-211 preparation in accordance with the invention into the lower cul-de-sac of the right eye of each rabbit. The eye was then kept open for a few more seconds, while excessive liquid spilling over the eyelid was wiped off. The left eye was not treated.
# [4] = Oh (immediately upon inoculation)
# [5] = single preservative in emulsion
# [6] = treated eye, single dose 50µl of 0.1% (w/v) HU-211
molecule,measurement,setting,value
Benzalkonium chloride [BZK],Number of Organisms in 1ml Emulsion,S.aureus; 24h,10^7
same,Number of Organisms in 1ml Emulsion,S.aureus; 48h,10^7
same,Number of Organisms in 1ml Emulsion,S.aureus; [4],7.3 x 10^6
same,Number of Organisms in 1ml Emulsion,A. niger; 24h,29
same,Number of Organisms in 1ml Emulsion,A. niger; 48h,43
same,Number of Organisms in 1ml Emulsion,A. niger; [4],1.5 x 10^4
same,Number of Organisms in 1ml Emulsion,P. aeruginosa; 24h,10^7
same,Number of Organisms in 1ml Emulsion,P. aeruginosa; 48h,10^7
same,Number of Organisms in 1ml Emulsion,P. aeruginosa; [4],4.2 x 10^6
same,Number of Organisms in 1ml Emulsion,E. coli; 24h,10^7
same,Number of Organisms in 1ml Emulsion,E. coli; 48h,5 x 10^6
same,Number of Organisms in 1ml Emulsion,E. coli; [4],2.6 x 10^6
same,Number of Organisms in 1ml Emulsion,C. albicans; 24h,>600
same,Number of Organisms in 1ml Emulsion,C. albicans; 48h,433
same,Number of Organisms in 1ml Emulsion,C. albicans; [4],1.0 x 10^6
CC(C)(O)C(Cl)(Cl)Cl [Chlorbutol],compliance with B.P. requirements,microorganisms; [5],did not meet the B.P. requirements
same,preservative protection,microorganisms; [5],No total preservative protection was achieved
Δ⁸-THC,duration of the reduction of IOP,[1],long-lasting
same,IOP,[1]; right eye,dramatically reduces the IOP
same,duration of the reduction of IOP,[2],long-lasting
same,IOP,[2]; right eye,dramatically reduces the IOP
"N=C(NCCCCCCNC(=N)NC(=N)Nc1ccc(Cl)cc1)NC(=N)Nc1ccc(Cl)cc1 [CHL, Chlorhexidine gluconate]",Number of Organisms in 1ml Emulsion,S.aureus; [4],3.5 x 10^6
same,Number of Organisms in 1ml Emulsion,A. niger; 24h,38
same,Number of Organisms in 1ml Emulsion,A. niger; 48h,54
same,Number of Organisms in 1ml Emulsion,P. aeruginosa; 24h,10^7
same,Number of Organisms in 1ml Emulsion,P. aeruginosa; 48h,10^7
same,Number of Organisms in 1ml Emulsion,P. aeruginosa; [4],4.2 x 10^6
same,Number of Organisms in 1ml Emulsion,E. coli; 48h,5 x 10^6
same,Number of Organisms in 1ml Emulsion,E. coli; [4],5.5 x 10^6
same,Number of Organisms in 1ml Emulsion,C. albicans; 24h,>600
same,Number of Organisms in 1ml Emulsion,C. albicans; 48h,433
same,Number of Organisms in 1ml Emulsion,C. albicans; [4],0.9 x 10^6
"C[CH2][Hg][S]c1ccccc1C(=O)O [THI, Thimerosal]",preservative effect compared with the other tested preservatives,microorganisms; 0.01% Thimerosal vs 0.02% benzalkonium chloride and 0.05% chlorhexadiene gluconate,much better preservative effect
same,maintenance of total killing,"S.aureus; S. aureus, after 48 hours",contamination was noted
same,maintenance of total killing,P. aeruginosa; after 48 hours,contamination was noted
same,preservative protection,C. albicans; at 24h,not able to protect totally
CCCCCCC(C)(C)c1cc(O)c2c(c1)OC(C)(C)[C@H]1CC=C(CO)C[C@H]21 [HU-211],HU-211 concentration,"[3]; 8 months at 4°C, 25°C, 30°C and 37°C",essentially no change
same,HU-211 concentration,[3]; storage at 50°C,marked decrease in concentration
same,decrease of IOP in the contralateral eye,Albino rabbits; Group I,about 11.4%
same,decrease of IOP in the contralateral eye,Albino rabbits; Group II,~12.1%
same,time until which the decrease in IOP persisted,"Albino rabbits; treated eye, percentage of IOP change from basal level (Fig. 14)",about 11 hours
same,time after which basal IOP levels were resumed,Albino rabbits; [6],about 11 hrs
same,time for which the decrease in IOP lasted,Albino rabbits; [6],about 6 hrs
same,IOP,"Albino rabbits; treated right eye, single dose of 50µl of 0.1% (w/v) HU-211 emulsion",dramatic decrease in IOP
